According to US11168080B2, “Dynamin-1-like protein inhibitors” (Mitobridge, Inc., priority 2017, dated 2021):
pIC50: −log10 of the molar value.

Molecular target: Drp1 (Homo sapiens (Human), UniProt O00429)
Assay: Drp1 Activity Screen: colorimetric (malachite green) GTPase assay
Format: biochemical
Conditions: GTPase activity; 0.6 μM Drp1 preincubated with 0.1 mg/mL liposomes, 1 mM GTP, 20 min at 37° C.
Protocol: The GTPase activity of Drp1 was assayed using a colorimetric assay similar to as described previously by Leonard M. et al. “Robust colorimetric assays for dynamin's basal and stimulated GTPase activities.” Methods Enzymol. […] Briefly, for GTPase assays of purified Drp1 inhibitor samples, 0.6 μM Drp1 preincubated with 0.1 mg/mL liposomes (consisting of 80% soybean lipids/20% cardiolipin) and inhibitor was added to 1 mM GTP in a microtiter plate for 20 min at 37° C. in 4 mM MgCl2, 10 mM Hepes (pH 7.0), 100 mM KCl, 1 mM DTT. Reactions were stopped by diluting with 0.5 mM EDTA. Samples were then incubated with malachite green reagent (1 mM malachite green and 50 mM ammonium molybdate in 1 N HCl), and the absorbance at 650 nm was measured. The reaction rates, IC50 values, and max % inhibition were determined using Excel/GraphPad Prism software.

Chain of Drp1 (O00429 whole entry): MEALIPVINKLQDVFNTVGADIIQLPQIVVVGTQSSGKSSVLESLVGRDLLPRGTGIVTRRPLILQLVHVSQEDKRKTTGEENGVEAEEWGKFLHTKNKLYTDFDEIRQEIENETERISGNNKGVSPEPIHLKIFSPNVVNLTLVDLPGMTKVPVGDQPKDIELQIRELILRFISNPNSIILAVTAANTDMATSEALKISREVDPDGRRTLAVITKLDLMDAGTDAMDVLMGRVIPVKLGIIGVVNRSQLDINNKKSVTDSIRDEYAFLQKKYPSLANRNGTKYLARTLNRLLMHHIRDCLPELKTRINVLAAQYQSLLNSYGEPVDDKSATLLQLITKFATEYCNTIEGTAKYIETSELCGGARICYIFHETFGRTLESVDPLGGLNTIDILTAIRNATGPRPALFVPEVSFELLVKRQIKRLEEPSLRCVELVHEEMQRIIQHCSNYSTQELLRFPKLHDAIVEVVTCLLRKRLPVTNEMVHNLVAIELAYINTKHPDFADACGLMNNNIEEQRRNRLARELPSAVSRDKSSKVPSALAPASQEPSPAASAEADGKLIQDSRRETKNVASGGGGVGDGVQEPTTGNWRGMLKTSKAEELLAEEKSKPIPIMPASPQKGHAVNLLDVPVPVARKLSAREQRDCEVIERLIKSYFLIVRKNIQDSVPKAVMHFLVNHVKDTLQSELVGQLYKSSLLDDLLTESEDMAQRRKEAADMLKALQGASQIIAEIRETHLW

SMILES	pIC50
Cc1cc(C(=O)Nc2ccc(-c3nn[nH]n3)cc2)n(Cc2csc(N3CCCCC3)n2)c1 [Compound A-7, N-(4-(1H-tetrazol-5-yl)phenyl)-4-methyl-1-((2-(piperidin-1-yl)thiazol-4-yl)methyl)-1H-pyrrole-2-carboxamide]	6.04
Cc1cc(C(=O)Nc2ccccc2)n(Cc2csc(N3CCCCC3)n2)c1 [Compound A-15, 4-methyl-N-phenyl-1-((2-(piperidin-1-yl)thiazol-4-yl)methyl)-1H-pyrrole-2-carboxamide]	5.66
Cc1cc(C(=O)Nc2ccc(C(=O)O)cc2)n(Cc2csc(N3CCCCC3C)n2)c1 (centres unmarked) [Compound A-20, 4-(4-methyl-1-((2-(2-methylpiperidin-1-yl)thiazol-4-yl)methyl)-1H-pyrrole-2-carboxamido)benzoic Acid]	5.41
Cc1cc(C(=O)NC2CCCOC2)n(Cc2csc(N3CCCCC3)n2)c1 (centres unmarked) [Compound A-27, 4-methyl-1-((2-(piperidin-1-yl)thiazol-4-yl)methyl)-N-(tetrahydro-2H-pyran-3-yl)-1H-pyrrole-2-carboxamide]	5.02
O=C(Nc1ccc(CO)cc1)c1cc(Br)cn1Cc1csc(N2CCCCC2)n1 [Compound A-63, 4-bromo-N-(4-(hydroxymethyl)phenyl)-1-((2-(piperidin-1-yl)thiazol-4-yl)methyl)-1H-pyrrole-2-carboxamide]	5.47
CC(=O)NS(=O)(=O)c1ccc(NC(=O)c2cc(C)cn2Cc2csc(N3CCCCC3)n2)cc1 [Compound A-6, N-(4-(N-acetylsulfamoyl)phenyl)-4-methyl-1-((2-(piperidin-1-yl)thiazol-4-yl)methyl)-1H-pyrrole-2-carboxamide]	5.30
Cc1cc(C(=O)Nc2cccnc2)n(Cc2csc(N3CCCCC3)n2)c1 [Compound A-31, 4-methyl-1-((2-(piperidin-1-yl)thiazol-4-yl)methyl)-N-(pyridin-3-yl)-1H-pyrrole-2-carboxamide]	5.12
Cc1cc(C(=O)Nc2ccncc2)n(Cc2csc(N3CCCCC3)n2)c1 [Compound A-32, 4-methyl-1-((2-(piperidin-1-yl)thiazol-4-yl)methyl)-N-(pyridin-4-yl)-1H-pyrrole-2-carboxamide]	4.99
Cc1cc(C(=O)Nc2ccc(-c3c(C)noc3C)cc2)n(Cc2csc(N3CCCCC3)n2)c1 [Compound A-36, N-(4-(3,5-dimethylisoxazol-4-yl)phenyl)-4-methyl-1-((2-(piperidin-1-yl)thiazol-4-yl)methyl)-1H-pyrrole-2-carboxamide]	5.85
Cc1cc(C(=O)Nc2ccc(-c3cccnc3)cc2)n(Cc2csc(N3CCCCC3)n2)c1 [Compound A-35, 4-methyl-1-((2-(piperidin-1-yl)thiazol-4-yl)methyl)-N-(4-(pyridin-3-yl)phenyl)-1H-pyrrole-2-carboxamide]	5.92
Cc1cc(C(=O)Nc2ccc(C(=O)O)cc2)n(Cc2csc(N3CCCC(C)C3)n2)c1 (centres unmarked) [Compound A-19, 4-(4-methyl-1-((2-(3-methylpiperidin-1-yl)thiazol-4-yl)methyl)-1H-pyrrole-2-carboxamido)benzoic Acid]	5.57
CNC(=O)c1ccc(NC(=O)c2cc(C)cn2Cc2csc(N3CCCCC3)n2)cc1 [Compound A-22, 4-methyl-N-(4-(methylcarbamoyl)phenyl)-1-((2-(piperidin-1-yl)thiazol-4-yl)methyl)-1H-pyrrole-2-carboxamide]	5.74
Cc1cc(C(=O)Nc2ccc(I)cc2)n(Cc2csc(N3CCCCC3)n2)c1 [Compound A-33, N-(4-iodophenyl)-4-methyl-1-((2-(piperidin-1-yl)thiazol-4-yl)methyl)-1H-pyrrole-2-carboxamide]	5.35
Cc1cc(C(=O)Nc2ccc(C(=O)O)cc2)n(Cc2csc(N3CCCCCC3)n2)c1 [Compound A-18, 4-(1-((2-(azepan-1-yl)thiazol-4-yl)methyl)-4-methyl-1H-pyrrole-2-carboxamido)benzoic Acid]	5.47
Cc1cc(C(=O)N[C@H]2CC[C@@H](C(=O)O)CC2)n(Cc2csc(N3CCCCC3)n2)c1 [Compound A-14, cis-4-(4-methyl-1-((2-(piperidin-1-yl)thiazol-4-yl)methyl)-1H-pyrrole-2-carboxamido)cyclohexane-1-carboxylic Acid]	4.41
Cc1cc(C(=O)N[C@H]2CC[C@H](C(=O)O)CC2)n(Cc2csc(N3CCCCC3)n2)c1 [Compound A-13, trans-4-(4-methyl-1-((2-(piperidin-1-yl)thiazol-4-yl)methyl)-1H-pyrrole-2-carboxamido)cyclohexane-1-carboxylic Acid]	5.26
Cc1cc(C(=O)NCc2ccc(C(=O)O)cc2)n(Cc2csc(N3CCCCC3)n2)c1 [Compound A-1, 4-((4-methyl-1-((2-(piperidin-1-yl)thiazol-4-yl)methyl)-1H-pyrrole-2-carboxamido)methyl)benzoic Acid]	5.19
Cc1cc(C(=O)Nc2ccc(C(=O)O)cc2)n(Cc2nc(N3CCCCC3)sc2C)c1 [Compound A-21, 4-(4-methyl-1-((5-methyl-2-(piperidin-1-yl)thiazol-4-yl)methyl)-1H-pyrrole-2-carboxamido)benzoic Acid]	4.92
Cc1cc(C(=O)NC2CCOCC2)n(Cc2csc(N3CCCCC3)n2)c1 [Compound A-29, 4-methyl-1-((2-(piperidin-1-yl)thiazol-4-yl)methyl)-N-(tetrahydro-2H-pyran-4-yl)-1H-pyrrole-2-carboxamide]	4.84
Cc1cc(C(=O)NC2COc3ccccc3C2)n(Cc2csc(N3CCCCC3)n2)c1 (centres unmarked) [Compound A-34, N-(chroman-3-yl)-4-methyl-1-((2-(piperidin-1-yl)thiazol-4-yl)methyl)-1H-pyrrole-2-carboxamide]	5.05
CCN(CC)c1nc(Cn2cc(C)cc2C(=O)Nc2ccc(C(=O)O)cc2)cs1 [Compound A-9, 4-(1-((2-(diethylamino)thiazol-4-yl)methyl)-4-methyl-1H-pyrrole-2-carboxamido)benzoic Acid]	4.29
Cc1cc(C(=O)NCc2ccccc2)n(Cc2csc(N3CCCCC3)n2)c1 [Compound A-3, N-benzyl-4-methyl-1-((2-(piperidin-1-yl)thiazol-4-yl)methyl)-1H-pyrrole-2-carboxamide]	5.32
Cc1cc(C(=O)NC2CCCC2)n(Cc2csc(N3CCCCC3)n2)c1 [Compound A-25, N-cyclopentyl-4-methyl-1-((2-(piperidin-1-yl)thiazol-4-yl)methyl)-1H-pyrrole-2-carboxamide]	5.24

Second part, the molecule after the results:

pIC50	SMILES
4.52	Cc1cn(Cc2csc(N3CCCCC3)n2)c(C(=O)Nc2ccc(C(=O)O)cc2)c1C [Compound A-68, 4-(3,4-dimethyl-1-((2-(piperidin-1-yl)thiazol-4-yl)methyl)-1H-pyrrole-2-carboxamido)benzoic acid]
5.37	Cc1cc(C(=O)Nc2ccc(N3CCNC3=O)cc2)n(Cc2csc(N3CCCCC3)n2)c1 [Compound A-43, 4-methyl-N-(4-(2-oxoimidazolidin-1-yl)phenyl)-1-((2-(piperidin-1-yl)thiazol-4-yl)methyl)-1H-pyrrole-2-carboxamide]
5.92	Cc1cc(C(=O)Nc2ccc(-c3ccoc3)cc2)n(Cc2csc(N3CCCCC3)n2)c1 [Compound A-38, N-(4-(furan-3-yl)phenyl)-4-methyl-1-((2-(piperidin-1-yl)thiazol-4-yl)methyl)-1H-pyrrole-2-carboxamide]
4.77	Cc1cc(C(=O)Nc2ccc(C(=O)O)nc2)n(Cc2csc(N3CCCCC3)n2)c1 [Compound A-62, 5-(4-methyl-1-((2-(piperidin-1-yl)thiazol-4-yl)methyl)-1H-pyrrole-2-carboxamido)picolinic Acid]
5.38	Cc1cc(C(=O)Nc2ccc3c(c2)CC(=O)N3)n(Cc2csc(N3CCCCC3)n2)c1 [Compound A-41, 4-methyl-N-(2-oxoindolin-5-yl)-1-((2-(piperidin-1-yl)thiazol-4-yl)methyl)-1H-pyrrole-2-carboxamide]
5.66	O=C(Nc1ccc(-c2nn[nH]n2)cc1)c1cc(-c2ccccc2)cn1Cc1csc(N2CCCCC2)n1 [Compound A-58, N-(4-(1H-tetrazol-5-yl)phenyl)-4-phenyl-1-((2-(piperidin-1-yl)thiazol-4-yl)methyl)-1H-pyrrole-2-carboxamide]
4.93	Cc1cc(Cn2cc(C)cc2C(=O)Nc2ccc(C(=O)O)cc2)nc(N2CCCCC2)c1 [Compound A-69, 4-(4-methyl-1-((4-methyl-6-(piperidin-1-yl)pyridin-2-yl)methyl)-1H-pyrrole-2-carboxamido)benzoic Acid]
< 4.00	CC(=O)c1cc(C(=O)Nc2ccc(C(=O)O)cc2)n(Cc2csc(N3CCCCC3)n2)c1 [Compound A-56, 4-(4-acetyl-1-((2-(piperidin-1-yl)thiazol-4-yl)methyl)-1H-pyrrole-2-carboxamido)benzoic Acid]
5.64	O=C(O)c1ccc(NC(=O)c2cc(Cl)cn2Cc2csc(N3CCCCC3)n2)cc1 [Compound A-70, 4-(4-chloro-1-((2-(piperidin-1-yl)thiazol-4-yl)methyl)-1H-pyrrole-2-carboxamido)benzoic Acid]
< 4.00	Nc1cc(C(=O)Nc2ccc(C(=O)O)cc2)n(Cc2csc(N3CCCCC3)n2)c1 [Compound A-53, 4-(4-Amino-1-((2-(piperidin-1-yl)thiazol-4-yl)methyl)-1H-pyrrole-2-carboxamido)benzoic acid]

Same assay, conditions: max % inhibition of Drp1 GTPase activity; 0.6 μM Drp1, 0.1 mg/mL liposomes, 1 mM GTP, 20 min at 37° C.

SMILES	max % inh [%]
Cc1cc(C(=O)Nc2ccccc2)n(Cc2csc(N3CCCCC3)n2)c1 [Compound A-15, 4-methyl-N-phenyl-1-((2-(piperidin-1-yl)thiazol-4-yl)methyl)-1H-pyrrole-2-carboxamide]	68
O=C(Nc1ccc(CO)cc1)c1cc(Br)cn1Cc1csc(N2CCCCC2)n1 [Compound A-63, 4-bromo-N-(4-(hydroxymethyl)phenyl)-1-((2-(piperidin-1-yl)thiazol-4-yl)methyl)-1H-pyrrole-2-carboxamide]	68
CC(=O)NS(=O)(=O)c1ccc(NC(=O)c2cc(C)cn2Cc2csc(N3CCCCC3)n2)cc1 [Compound A-6, N-(4-(N-acetylsulfamoyl)phenyl)-4-methyl-1-((2-(piperidin-1-yl)thiazol-4-yl)methyl)-1H-pyrrole-2-carboxamide]	71
Cc1cc(C(=O)Nc2ccc(I)cc2)n(Cc2csc(N3CCCCC3)n2)c1 [Compound A-33, N-(4-iodophenyl)-4-methyl-1-((2-(piperidin-1-yl)thiazol-4-yl)methyl)-1H-pyrrole-2-carboxamide]	34
Cc1cc(C(=O)NCc2ccccc2)n(Cc2csc(N3CCCCC3)n2)c1 [Compound A-3, N-benzyl-4-methyl-1-((2-(piperidin-1-yl)thiazol-4-yl)methyl)-1H-pyrrole-2-carboxamide]	70
